# The source made the active and inactive calls. The calls are words filed in the database; no cut-off is given here.
# How the values were obtained:
# [1] = test system: TGF-beta receptor type-1 (Homo sapiens), P36897 [T204D]; assay: Inhibition of human TGFBR1 T204D mutant (200 to end residues) using casein as substrate measured after 40 mins in presence of [gamma33P]ATP by scintillation counting method; set-up: scale not given: the % may be the effect or the level left
# [2] = target: ALK tyrosine kinase receptor (Homo sapiens) (UniProt Q9UM73); assay: Inhibition of recombinant human ALK (1058 to end residues) assessed as residual activity at 10 uM using KKKSPGEYVNIEF as substrate measured after 40 mins in presence of [gamma33P]ATP by scintillation counting method
# SW-620 = assay: Induction of apoptosis in human SW620 cells assessed as necrotic cells at 50 nM measured after 48 hrs by Annexin V-FITC/propidium iodide staining-based flow cytometry (reference value: 2.71%); type: functional
# [3] = target: Serine/threonine-protein kinase PRP4 homolog (Homo sapiens) (UniProt Q13523); assay: Inhibition of human PRP4 (663 to end residues) using casein as substrate measured after 40 mins in presence of [gamma33P]ATP by scintillation counting method; set-up: scale not given: the % may be the effect or the level left
# [4] = target: Phosphatidylinositol 4-phosphate 3-kinase C2 domain-containing subunit alpha (Homo sapiens) (UniProt O00443); assay: Inhibition of recombinant human PI3KC2alpha (299 to end residues) assessed as residual activity at 10 uM using phosphatidylinositol as substrate measured after 40 mins by HTRF assay
# [5] = target: Serine/threonine-protein kinase MARK2 (Homo sapiens) (UniProt Q7KZI7); assay: Inhibition of recombinant full-length human PAR1Balpha assessed as residual activity at 10 uM using KKKVSRSGLYRSPSMPENLNRPR as substrate measured after 40 mins in presence of [gamma33P]ATP by scintillation counting method
# [6] = target: Serine/threonine-protein kinase PAK 4 (Homo sapiens) (UniProt O96013); assay: Inhibition of recombinant human PAK4 (295 to end residues) assessed as residual activity at 10 uM using myelin basic protein as substrate measured after 40 mins in presence of [gamma33P]ATP by scintillation counting method
# [7] = target: Casein kinase 2 (Homo sapiens) (UniProt P67870+P68400+P19784+Q8NEV1); assay: Inhibition of human CK2 assessed as residual activity at 10 uM; type: protein assay
# [8] = target: Insulin-like growth factor 1 receptor (Homo sapiens) (UniProt P08069); assay: Inhibition of recombinant human IGF1R (959 to end residues) assessed as residual activity at 10 uM using KKKSPGEYVNIEFG as substrate measured after 40 mins in presence of [gamma33P]ATP by scintillation counting method
# [9] = target: Cyclin-Y/Cyclin-dependent kinase 16 (Homo sapiens) (UniProt Q00536+Q8ND76); assay: Inhibition of recombinant full length human CDK16/cyclinY assessed as residual activity at 10 uM using PKSPKARKKL as substrate measured after 120 mins in presence of [gamma33P]ATP by scintillation counting method; type: protein-complex assay
# [10] = Toxicity in nude BALB/c mouse xenografted with human HCT116 cells assessed as change in body weight at 40 mg/kg, po administered once daily for 4 weeks measured every 3 days during compound dosing; type: organism-based; conditions: in vivo
# [11] = target: Homeodomain-interacting protein kinase 1 (Homo sapiens) (UniProt Q86Z02); assay: Inhibition of recombinant human activated HIPK1 (158 to 555 residues) assessed as residual activity at 10 uM using myelin basic protein as substrate measured after 40 mins in presence of [gamma33P]ATP by scintillation counting method
# [12] = test system: RAF proto-oncogene serine/threonine-protein kinase (Homo sapiens), P04049 [Y340D,Y341D]; assay: Inhibition of recombinant human c-RAF Y340D/Y341D mutant (360 to end residues) assessed as residual activity at 10 uM using inactive MEK1 as substrate measured after 40 mins in presence of [gamma33P]ATP by scintillation counting method
# [13] = target: High affinity nerve growth factor receptor (Homo sapiens) (UniProt P04629); assay: Inhibition of human TrkA (440 to end residues) using KKKSPGEYVNIEFG as substrate measured after 40 mins in presence of [gamma33P]ATP by scintillation counting method; set-up: scale not given: the % may be the effect or the level left
# [14] = target: cGMP-dependent protein kinase 1 (Homo sapiens) (UniProt Q13976); assay: Inhibition of recombinant full-length human PKG1beta assessed as residual activity at 10 uM using RRRLSFAEPG as substrate measured after 40 mins in presence of [gamma33P]ATP by scintillation counting method
# [15] = test system: Epidermal growth factor receptor (Homo sapiens), P00533 [L861Q]; assay: Inhibition of recombinant human EGFR L861Q mutant (696 to end residues) assessed as residual activity at 10 uM using poly(Glu, Tyr) 4:1 as substrate measured after 40 mins in presence of [gamma33P]ATP by scintillation counting method
# HCT-116 = assay: Induction of apoptosis in human HCT116 cells assessed as decrease in Bcl2 expression up to 200 nM measured after 48 hrs by Western blot analysis; type: functional, cell-based
# [16] = target: Cyclin-dependent kinase-like 3 (Homo sapiens) (UniProt Q8IVW4); assay: Inhibition of recombinant human full-length CDKL3 (1 to 303 residues) assessed as residual activity at 10 uM using RRRFRPASPLRGP as substrate measured after 120 mins in presence of [gamma33P]ATP by scintillation counting method
# [17] = target: Serine/threonine-protein kinase BRSK1 (Homo sapiens) (UniProt Q8TDC3); assay: Inhibition of recombinant human BrSK1 (2 to end residues) assessed as residual activity at 10 uM using KKKVSRSGLYRSPSMPENLNRPR as substrate measured after 120 mins in presence of [gamma33P]ATP by scintillation counting method
# [18] = target: Serine/threonine-protein kinase 4 (Homo sapiens) (UniProt Q13043); assay: Inhibition of recombinant full-length human MST1 assessed as residual activity at 10 uM using KKSRGDYMTMQIG as substrate measured after 40 mins in presence of [gamma33P]ATP by scintillation counting method
# [19] = test system: Mitogen-activated protein kinase 14 (Homo sapiens), Q16539 [T106M]; assay: Inhibition of recombinant full-length human SAPK2a T106M mutant assessed as residual activity at 10 uM using myelin basic protein as substrate measured after 40 mins in presence of [gamma33P]ATP by scintillation counting method
# [20] = Toxicity in nude BALB/c mouse assessed as change in total protein level at 40 to 80 mg/kg, po once daily for 4 weeks measured post-last dose; type: organism-based; conditions: in vivo, 672 h
# [21] = target: Serine-protein kinase ATM (Homo sapiens) (UniProt Q13315); assay: Inhibition of recombinant full-length human ATM assessed as residual activity at 10 uM using GST-cMyc-p53 as substrate measured after 40 mins by ELISA
# [22] = target: Serine/threonine-protein kinase pim-1 (Homo sapiens) (UniProt P11309); assay: Inhibition of recombinant full-length human Pim1 assessed as residual activity at 10 uM using KKRNRTLTV as substrate measured after 40 mins in presence of [gamma33P]ATP by scintillation counting method
# Serine/threonine-protein kinase pim-1 (Homo sapiens), sequence (P11309 whole entry, looked up): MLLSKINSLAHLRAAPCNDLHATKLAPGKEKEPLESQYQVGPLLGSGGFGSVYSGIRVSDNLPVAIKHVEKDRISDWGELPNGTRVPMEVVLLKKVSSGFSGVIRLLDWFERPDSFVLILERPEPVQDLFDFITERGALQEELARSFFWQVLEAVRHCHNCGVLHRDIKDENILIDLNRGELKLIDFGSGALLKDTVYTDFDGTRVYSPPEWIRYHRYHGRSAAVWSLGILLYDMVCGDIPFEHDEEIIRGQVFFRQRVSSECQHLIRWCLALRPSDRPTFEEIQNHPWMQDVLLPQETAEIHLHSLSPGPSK
# Cyclin-dependent kinase-like 3 (Homo sapiens), sequence (Q8IVW4 whole entry, looked up, the tested form may be a part): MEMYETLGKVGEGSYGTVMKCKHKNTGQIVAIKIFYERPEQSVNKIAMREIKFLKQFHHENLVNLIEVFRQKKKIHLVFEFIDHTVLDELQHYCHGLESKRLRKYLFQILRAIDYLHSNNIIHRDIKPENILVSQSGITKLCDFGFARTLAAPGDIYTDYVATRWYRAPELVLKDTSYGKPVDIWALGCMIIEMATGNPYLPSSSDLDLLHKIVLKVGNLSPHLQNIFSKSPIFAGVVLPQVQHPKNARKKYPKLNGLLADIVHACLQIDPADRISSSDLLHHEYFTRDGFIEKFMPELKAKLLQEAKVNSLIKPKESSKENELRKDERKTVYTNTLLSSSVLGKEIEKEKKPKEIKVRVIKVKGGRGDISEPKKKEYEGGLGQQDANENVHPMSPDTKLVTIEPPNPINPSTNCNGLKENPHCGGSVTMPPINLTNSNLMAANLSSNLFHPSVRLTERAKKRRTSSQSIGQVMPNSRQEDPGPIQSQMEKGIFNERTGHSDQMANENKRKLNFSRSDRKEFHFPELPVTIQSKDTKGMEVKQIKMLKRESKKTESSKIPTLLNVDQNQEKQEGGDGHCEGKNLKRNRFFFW
# Serine/threonine-protein kinase PAK 4 (Homo sapiens), sequence (O96013 whole entry, looked up): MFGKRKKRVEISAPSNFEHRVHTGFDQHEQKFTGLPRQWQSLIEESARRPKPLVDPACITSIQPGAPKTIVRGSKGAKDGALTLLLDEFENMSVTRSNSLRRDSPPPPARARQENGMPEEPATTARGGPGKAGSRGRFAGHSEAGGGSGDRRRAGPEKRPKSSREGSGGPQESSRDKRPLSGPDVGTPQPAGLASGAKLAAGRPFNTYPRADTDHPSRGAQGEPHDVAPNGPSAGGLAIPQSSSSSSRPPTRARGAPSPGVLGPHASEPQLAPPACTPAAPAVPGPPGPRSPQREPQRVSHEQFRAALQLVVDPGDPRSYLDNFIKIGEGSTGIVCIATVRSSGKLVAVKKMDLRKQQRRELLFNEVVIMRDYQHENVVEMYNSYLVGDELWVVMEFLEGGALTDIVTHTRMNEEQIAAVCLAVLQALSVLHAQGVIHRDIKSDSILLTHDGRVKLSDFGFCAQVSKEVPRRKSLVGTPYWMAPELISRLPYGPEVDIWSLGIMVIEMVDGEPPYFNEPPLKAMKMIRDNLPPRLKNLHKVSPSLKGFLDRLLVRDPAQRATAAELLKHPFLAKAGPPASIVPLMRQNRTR
# Serine/threonine-protein kinase BRSK1 (Homo sapiens), sequence (Q8TDC3 whole entry): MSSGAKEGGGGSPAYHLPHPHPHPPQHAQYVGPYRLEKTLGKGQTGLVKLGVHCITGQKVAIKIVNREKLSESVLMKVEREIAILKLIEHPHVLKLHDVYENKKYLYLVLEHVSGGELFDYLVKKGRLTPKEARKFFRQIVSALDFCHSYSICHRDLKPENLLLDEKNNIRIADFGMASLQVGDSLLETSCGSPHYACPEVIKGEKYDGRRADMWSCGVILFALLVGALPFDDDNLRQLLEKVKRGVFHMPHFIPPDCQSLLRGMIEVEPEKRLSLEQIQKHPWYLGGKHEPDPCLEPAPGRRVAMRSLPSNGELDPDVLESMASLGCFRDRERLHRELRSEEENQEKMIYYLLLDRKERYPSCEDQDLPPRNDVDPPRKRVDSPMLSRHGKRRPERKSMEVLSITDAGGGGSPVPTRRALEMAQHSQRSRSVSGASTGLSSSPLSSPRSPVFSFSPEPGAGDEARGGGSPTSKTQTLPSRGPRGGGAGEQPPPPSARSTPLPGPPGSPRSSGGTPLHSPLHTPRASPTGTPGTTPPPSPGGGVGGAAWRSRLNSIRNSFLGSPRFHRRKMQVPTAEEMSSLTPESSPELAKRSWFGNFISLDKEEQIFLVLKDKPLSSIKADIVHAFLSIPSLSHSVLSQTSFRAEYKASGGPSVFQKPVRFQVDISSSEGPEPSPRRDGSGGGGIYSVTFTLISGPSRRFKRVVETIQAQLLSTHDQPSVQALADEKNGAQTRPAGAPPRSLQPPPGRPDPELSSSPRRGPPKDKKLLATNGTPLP
# Homeodomain-interacting protein kinase 1 (Homo sapiens), sequence (Q86Z02 whole entry, looked up, the tested form may be a part): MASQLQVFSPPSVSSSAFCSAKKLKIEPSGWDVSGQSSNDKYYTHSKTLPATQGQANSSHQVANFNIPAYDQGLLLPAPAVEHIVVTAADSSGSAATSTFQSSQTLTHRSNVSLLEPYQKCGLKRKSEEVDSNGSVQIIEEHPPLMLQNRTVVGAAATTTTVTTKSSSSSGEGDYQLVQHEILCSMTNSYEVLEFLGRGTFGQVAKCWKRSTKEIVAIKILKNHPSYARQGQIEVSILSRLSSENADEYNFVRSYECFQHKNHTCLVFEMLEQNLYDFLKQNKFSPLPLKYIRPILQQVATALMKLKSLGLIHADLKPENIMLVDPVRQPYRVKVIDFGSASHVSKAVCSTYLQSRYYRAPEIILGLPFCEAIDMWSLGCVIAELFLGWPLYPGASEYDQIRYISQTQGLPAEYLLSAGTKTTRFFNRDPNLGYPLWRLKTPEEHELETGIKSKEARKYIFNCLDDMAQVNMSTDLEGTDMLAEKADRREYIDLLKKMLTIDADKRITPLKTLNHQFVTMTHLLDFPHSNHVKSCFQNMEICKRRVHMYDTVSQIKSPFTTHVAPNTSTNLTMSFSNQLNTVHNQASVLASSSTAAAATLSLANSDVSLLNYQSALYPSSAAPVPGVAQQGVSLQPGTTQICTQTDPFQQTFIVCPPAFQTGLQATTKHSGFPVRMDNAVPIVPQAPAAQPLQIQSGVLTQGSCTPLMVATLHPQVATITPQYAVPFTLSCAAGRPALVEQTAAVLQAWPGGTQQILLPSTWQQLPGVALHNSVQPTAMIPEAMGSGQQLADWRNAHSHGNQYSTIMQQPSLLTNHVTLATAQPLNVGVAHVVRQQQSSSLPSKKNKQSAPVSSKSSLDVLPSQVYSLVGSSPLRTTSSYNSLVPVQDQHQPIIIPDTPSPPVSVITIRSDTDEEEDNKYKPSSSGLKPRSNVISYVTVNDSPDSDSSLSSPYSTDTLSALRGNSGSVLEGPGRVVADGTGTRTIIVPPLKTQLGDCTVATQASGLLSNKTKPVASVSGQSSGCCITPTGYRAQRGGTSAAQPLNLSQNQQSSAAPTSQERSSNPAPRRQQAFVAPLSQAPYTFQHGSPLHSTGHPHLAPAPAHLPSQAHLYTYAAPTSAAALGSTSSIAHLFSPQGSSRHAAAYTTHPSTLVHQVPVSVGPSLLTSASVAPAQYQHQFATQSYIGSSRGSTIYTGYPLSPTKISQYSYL
# TGF-beta receptor type-1 (Homo sapiens), P36897 [T204D], sequence (P36897 whole entry T204D): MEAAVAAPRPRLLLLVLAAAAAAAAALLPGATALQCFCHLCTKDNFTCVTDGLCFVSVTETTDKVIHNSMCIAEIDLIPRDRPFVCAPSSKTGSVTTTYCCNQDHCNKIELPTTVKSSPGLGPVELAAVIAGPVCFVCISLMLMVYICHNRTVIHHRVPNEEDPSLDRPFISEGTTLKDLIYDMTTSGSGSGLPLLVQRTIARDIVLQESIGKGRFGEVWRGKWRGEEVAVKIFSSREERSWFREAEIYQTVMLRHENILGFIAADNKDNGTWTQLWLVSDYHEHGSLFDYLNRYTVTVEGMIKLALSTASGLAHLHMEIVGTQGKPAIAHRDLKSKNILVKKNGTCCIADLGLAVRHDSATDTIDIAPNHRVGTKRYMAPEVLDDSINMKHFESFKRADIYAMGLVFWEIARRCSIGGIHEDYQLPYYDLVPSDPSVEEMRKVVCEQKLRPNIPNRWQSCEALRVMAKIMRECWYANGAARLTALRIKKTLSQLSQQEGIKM
# cGMP-dependent protein kinase 1 (Homo sapiens), sequence (Q13976 whole entry): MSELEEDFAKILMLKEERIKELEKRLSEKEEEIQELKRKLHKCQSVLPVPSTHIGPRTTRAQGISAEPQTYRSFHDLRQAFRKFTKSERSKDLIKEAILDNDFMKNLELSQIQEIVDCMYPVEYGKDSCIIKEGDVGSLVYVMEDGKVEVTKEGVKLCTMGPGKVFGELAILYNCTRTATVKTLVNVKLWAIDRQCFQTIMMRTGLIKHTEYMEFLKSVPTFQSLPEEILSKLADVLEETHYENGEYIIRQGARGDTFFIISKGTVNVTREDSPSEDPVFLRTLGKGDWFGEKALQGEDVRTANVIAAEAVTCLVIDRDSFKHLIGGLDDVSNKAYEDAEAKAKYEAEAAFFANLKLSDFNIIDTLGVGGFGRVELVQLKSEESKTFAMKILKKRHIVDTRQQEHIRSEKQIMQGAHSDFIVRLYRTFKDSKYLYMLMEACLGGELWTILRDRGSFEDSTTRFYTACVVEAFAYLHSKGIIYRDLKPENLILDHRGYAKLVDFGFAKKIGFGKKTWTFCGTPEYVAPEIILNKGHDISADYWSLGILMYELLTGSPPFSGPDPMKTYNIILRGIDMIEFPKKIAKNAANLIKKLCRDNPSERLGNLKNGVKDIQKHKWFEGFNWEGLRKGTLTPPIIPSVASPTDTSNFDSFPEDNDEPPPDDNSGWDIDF
# Mitogen-activated protein kinase 14 (Homo sapiens), Q16539 [T106M], sequence (Q16539 whole entry T106M): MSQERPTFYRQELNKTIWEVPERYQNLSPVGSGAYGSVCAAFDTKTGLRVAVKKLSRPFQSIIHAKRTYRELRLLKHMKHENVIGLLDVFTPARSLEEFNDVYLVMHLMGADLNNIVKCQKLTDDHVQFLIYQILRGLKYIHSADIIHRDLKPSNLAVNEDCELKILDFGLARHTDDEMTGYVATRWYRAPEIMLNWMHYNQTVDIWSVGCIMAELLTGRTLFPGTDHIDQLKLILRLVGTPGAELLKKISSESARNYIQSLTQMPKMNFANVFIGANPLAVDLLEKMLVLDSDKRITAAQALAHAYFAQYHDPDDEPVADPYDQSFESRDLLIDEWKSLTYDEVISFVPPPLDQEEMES
compound,measurement,setting,value
Cc1cc(C)c(CNc2nc(Cl)nc3c2ncn3C2CCCC2)c(=O)[nH]1,Activity,[1],98%
same,Activity,[2],112%
same,Activity,SW-620,6.3%
same,Activity,[3],93%
same,Activity,[4],112%
same,Activity,[5],95.5%
same,Activity,[6],106%
same,Activity,[7],111%
same,Activity,[8],81%
same,Activity,[9],123%
same,Activity,[10],Non-Toxic
same,Activity,[11],100%
same,Activity,[12],96.5%
same,Activity,[13],92%
same,Activity,[14],112%
same,Activity,[15],98.5%
same,Activity,HCT-116,Active
same,Activity,[16],126%
same,Activity,[17],140%
same,Activity,[18],122%
same,Activity,[19],100%
same,Activity,[20],Non-Toxic
same,Activity,[21],95.5%
same,Activity,[22],106%

# From ChEMBL document CHEMBL4311992, “Discovery of 3-(((9H-purin-6-yl)amino)methyl)-4,6-dimethylpyridin-2(1H)-one derivatives as novel tubulin polymerization inhibitors for treatment of cancer” (Eur J Med Chem, 2019)
